Assay results published in US20250304700A1, “ANTI-BLOOD DENDRITIC CELL ANTIGEN 2 ANTIBODIES AND USES THEREOF” (Biogen MA Inc., priority 2012, published 2025).

Key:
[1] = test system: TLR9-induced IFNα production in whole blood; experiment: Whole blood assay, TLR9-induced IFNα production; type: cell-based, human; conditions: CpG-A stimulated whole blood
Procedure: Whole blood was drawn from heparinized venous blood of healthy donors. […] CpG-A was added at 200 μg/mL, which was determined to be optimal for stimulation of IFNα production in whole blood. Plates were incubated for 18 hours at 37° C. and supernatants collected for use in IFNα ELISA assays (PBL InterferonSource). The assays were performed according to the manufacturer's protocol. Shown in FIG. 15A is a representative experiment of 6 independent experiments performed.
Specifically, whole blood from 2 SLE patients or 2 healthy donors was provided by Bioreclamation LLC by overnight shipping. […] Plates were incubated for 18 hours at 37° C. and supernatants collected for use in IFNα ELISA assays (PBL InterferonSource). The assays were performed according to the manufacturer's protocol.
CpG-A was added at 75 μg/mL (open square), which was determined to be optimal for stimulation of IFNα production in whole blood. Plates were incubated for 18 hours at 37° C. and supernatants collected for use in IFNα ELISA assays (PBL InterferonSource).
The whole blood was then collected, lysed, and BDCA2 expression was assessed by flow cytometry using the FITC-conjugated non-cross blocking antibody 2D6. […] The supernatants were harvested and evaluated for IFNα by ELISA.

[2] = test system: BDCA2 bearing CHO cells; experiment: ADCC assay with NK cells; type: cell-based; conditions: NK:CHO 5:1, 4 hours
Procedure: The CHO cell line (EAG2456 T1F2 Clone 34.16.7) was used as the target cell. Expression level of BDCA2 on the surface of CHO cells was determined by FACS using an APC-labeled anti-BDCA2 mAb (clone AC144, Miltenyi). NK cells were used as the effector cells and were separated from whole blood by negative selection using the RosetteSep™ Human NK Cell Enrichment Cocktail (Stem Cells Technologies). After a 20 minute incubation with the cocktail at room temperature, NK cells were isolated by discontinuous gradient centrifugation over ficoll. […] The negative control consisted of wells containing CHO and NK cells without antibodies. NK and CHO cells lysed with Tx-100 were used to determine maximal killing. ADCC was evaluated using the Vybrant Cytotoxicity Assay kit (Invitrogen), following the manufacturer's instructions. The assay detects G6PD from damaged cells based on the G6PD-dependent reduction of resazurin which emits fluorescence at 590 nm after excitation at 530 nm. The ADCC assay depicted in FIG. 22 panel A was performed using high BDCA2 expressing CHO cells (panel C) while the ADCC assay in FIG. 22 panel B used CHO cells with lower BDCA2 expression (panel D).

[3] = test system: TLR9-induced IFNα production; experiment: Ex vivo whole blood assay (MxA bioassay) after in vivo dosing; design: species or system cynomolgus monkey
Procedure: FIG. 58 is a schematic representation of the Cynomolgus Monkey PK/PD Experimental Design. Nine Cynomolgus monkeys completed the intravenous (IV) dose study. […] At each bleeding time point, a whole blood assay was performed where whole blood from the cynomolgus monkeys was diluted 1:4 with complete RPMI 1640 and stimulated with CPG-A to a final concentration of 200 μg/ml in a 96 well round bottom tissue culture plate and incubated at 37° C. 5% CO2 for 18-20 hours. At the end of the culture, the stimulated whole blood was centrifuged to harvest serum. In the MxA bioassay, A549 cells were stimulated with the harvested serum for 19-20 hours at 37° C. 5% CO2 to induce MxA protein. After 20 hours, A549 cells were lysed and a sandwich ELISA was performed to detect concentrations of MxA protein. IFNα levels (units/mL) were back calculated from a standard curve generated by treating A549 cells with increasing doses of rIFNa.
Intravenous and subcutaneous dosing routes were evaluated for their ability to impact IFNα induction, which was measured using the MxA bioassay according to the experimental plan outlined in FIG. 58. TLR9 ligand (CpG-A) induced measurable quantities of IFNα in whole blood cultures across all time points and in all cynomolgus monkeys, while no IFNα was detected in the control PBS-treated cultures (data not shown).
A more comprehensive analysis of the data was performed using two-way mixed effects analysis of variance (ANOVA) to estimate the mean IFNα and the post versus pre differences for each dose group in the IV-study. Data during the first 24 hours following dosing were excluded due to an observed decrease in peripheral blood plasmacytoid dendritic cell percentages. Data for bleeds after day 31 post-dose were excluded from the analysis due to the return of BDCA2 expression observed at this time. For the vehicle dosed group, the geometric mean IFNα was 362 Units/mL (U/mL) pre-dose, and 314 U/mL post-dose; for the 1 mg/kg dosed group, the geometric mean was 399 U/mL pre-dose, and 237 U/mL post-dose; for the 10 mg/kg group, the geometric mean IFNα was 211 U/mL pre-dose, and 102 U/mL post-dose (FIG. 4). The post-pre differences in mean log 10 IFNα were-0.061 (p=0.511) for the Vehicle group, −0.226 (p=0.016) for the 1 mg/kg group, and −0.317 (p=0.004) for the 10 mg/kg group.
For the subcutaneously-dosed cynomolgus monkey cohort, a one-way analysis of variance (ANOVA) with random effects was used to estimate the mean IFNα and the post versus pre differences for the entire group. Data during the first 24 hours following dosing were excluded due to an observed decrease in peripheral blood plasmacytoid dendritic cell percentages. Data for bleeds after day 33 post-dose were excluded from the analysis due to the recovery of BDCA2 expression observed at this time. For the subcutaneously dosed group, the geometric mean IFNα was 1243 U/mL pre-dose and 812 U/mL post-dose, yielding a post/pre ratio of 65%. The post-pre difference in mean log 10 was estimated to be −0.185 (p=0.059) which, after anti-log 10 transformation, corresponds to 10^(−0.185)=65% of the pre-dose geometric mean; the 95% CI of this effect is 41%-102% (FIG. 61).

[4] = test system: CHO-BDCA2/FcεRIγ stable transfectant cells; experiment: CDC assay with rabbit serum complement; type: cell-based; conditions: 1 h at 37° C.
Procedure: CHO− BDCA2/FcεRIγ stable transfectant cells (EAG2456 T1F2 Clone 34.16.7) were seeded at 5×10^4 cells in 96 well Collagen black well plates and incubated at 37° C. for 48 hrs. […] Negative control consisted of wells containing CHO cells, rabbit serum complement, and PI, without antibodies. NK and CHO cells lysed with T-100×were used to determine maximal killing. The plates were read using Cytoflour Fluorescence plate reader (ex530/em645).

| Substance | other cytokines and chemokines in whole blood [1] | ADCC activity, in words [2] | IFNα post-dose, of the pre-dose geometric mean ([3]; 0.2 mg/kg SC) [%] | post-pre difference in mean log 10 IFNα ([3]; 0.2 mg/kg SC) | geometric mean IFNα post-dose ([3]; 0.2 mg/kg SC, up to day 33) [U/mL] | IFN concentration post-dose compared to pre-dose ([3]; 1 mg/kg IV) [%] | post-pre difference in mean log 10 IFNα ([3]; 1 mg/kg IV) | geometric mean IFNα post-dose ([3]; 1 mg/kg IV, up to day 31) [U/mL] | IFN concentration post-dose compared to pre-dose ([3]; 10 mg/kg IV) [%] | geometric mean IFNα post-dose ([3]; 10 mg/kg IV) [U/mL] | post-pre difference in mean log 10 IFNα ([3]; 10 mg/kg IV) | TLR9-induced IFN production ex vivo, in words ([3]; dosed in vivo, IV and SC) | CDC activity, in words [4] | killing of BDCA2 bearing CHO cells [2] [%] |
| --- | --- | --- | --- | --- | --- | --- | --- | --- | --- | --- | --- | --- | --- | --- |
| BIIB059: humanized IgG1 anti-BDCA2 antibody, mature heavy chain SEQ ID NO: 4 and mature light chain SEQ ID NO: 3 | inhibition of a large array of cytokines and chemokines | identical ADCC activity | 65 | −0.185 | 812 | 59 | −0.226 | 237 | 48 | 102 | −0.317 | trend towards inhibited TLR9-induced IFN production | cell killing by CDC similar to Triton lysis | – |
| 24F4S: hu24F4 H4/L1 with C95S light chain; differs from BIIB059 by 1 amino acid residue | – | – | – | – | – | – | – | – | – | – | – | – | cell killing by CDC similar to Triton lysis | 100 |
